For 16 molecules, EC50 results are on record in US10273230B2, “Substituted phenyl alkanoic acid compounds as GPR120 agonists and uses thereof” (Piramal Enterprises Limited, priority 2014, dated 2019).

GPR120 receptor, sequence (Q5NUL3 whole entry, the tested form may be a part): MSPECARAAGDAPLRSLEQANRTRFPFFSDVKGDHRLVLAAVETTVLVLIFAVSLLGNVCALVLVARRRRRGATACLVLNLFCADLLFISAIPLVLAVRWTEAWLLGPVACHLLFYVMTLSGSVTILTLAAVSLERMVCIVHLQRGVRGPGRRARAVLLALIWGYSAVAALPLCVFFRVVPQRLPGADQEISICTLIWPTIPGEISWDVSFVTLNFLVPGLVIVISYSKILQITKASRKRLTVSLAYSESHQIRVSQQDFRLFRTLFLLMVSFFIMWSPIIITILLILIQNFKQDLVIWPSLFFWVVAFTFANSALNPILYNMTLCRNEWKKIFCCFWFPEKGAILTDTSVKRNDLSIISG
GPR120 receptor, sequence (P32121 whole entry partner, the tested form may be a part): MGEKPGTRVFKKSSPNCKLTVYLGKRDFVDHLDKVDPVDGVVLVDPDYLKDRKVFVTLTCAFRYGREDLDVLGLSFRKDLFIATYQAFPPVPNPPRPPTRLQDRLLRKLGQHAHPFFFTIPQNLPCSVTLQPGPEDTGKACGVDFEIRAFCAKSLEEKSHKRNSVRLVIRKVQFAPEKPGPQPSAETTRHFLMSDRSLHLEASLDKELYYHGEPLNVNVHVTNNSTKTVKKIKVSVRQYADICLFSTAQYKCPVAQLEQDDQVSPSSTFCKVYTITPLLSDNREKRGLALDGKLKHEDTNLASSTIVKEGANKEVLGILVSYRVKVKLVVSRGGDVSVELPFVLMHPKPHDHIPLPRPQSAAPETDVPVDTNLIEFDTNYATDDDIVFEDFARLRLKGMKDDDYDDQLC

In the experiment the target is GPR120 receptor (Homo sapiens (Human), UniProt Q5NUL3). Put plainly: Beta (β) arrestin 2 Interaction Assay (BRET assay), β-galactosidase enzyme fragment complementation. Format: cell-based. The following applies: CHO-K1 cells stably expressing the GPR120 receptor; β-arrestin recruitment; 2 hours incubation; 30 μM to 1 nM. The protocol:
Beta (β) arrestin 2 Interaction Assay (BRET assay) was performed using CHO-K1 cells stably expressing the GPR120 receptor using β-galactosidase (Beta gal) enzyme fragment complementation assay. The measurement of GPR120 activation upon agonist activation was directly provided by β-arrestin recruitment. One day before the β-arrestin 2 assay, CHO-K1 cells were seeded and incubated overnight at 37° C. in a 5% CO2 humidified atmosphere. Cells were treated with the test compounds in the various concentrations ranging from 30 μM to 1 nM and incubated for 2 hours for GPCR (GPR120) activation. Extent of Arrestin recruitment was measured by adding detection reagents for Beta gal complementation assay and was further incubated for 1 hour. The chemi-luminescent signal was detected on Polar Star (BMG Labtech). The dose-response curve was analyzed using Sigma Plot/Graph Pad. The EC50 (concentration of the test compounds where 50% of compounds' maximal activity is observed) values were calculated from the dose-response curve.
The molecule `N#CC1(c2ccc(C3=C(COc4ccc(CCCC(=O)O)cc4)CCCCC3)cc2)CC1` [Example 21, 4-(4-((2-(4-(1-cyanocyclopropyl)phenyl)cyclohept-1-en-1-yl)methoxy)phenyl) butanoic Acid] displayed a concentration giving a half-maximal response (EC50) of 500 to 5000 nM. The figure for `O=C(O)CCCc1ccc(OCC2=C(c3ccc(C4CC4)cc3)CCCC2)cc1` [Example 7, 4-(4-((4′-cyclopropyl-3,4,5,6-tetrahydro-[1,1′-biphenyl]-2-yl)methoxy)phenyl)butanoic Acid] is 50 to 500 nM; for `CC1CCC(c2ccc(C3(C#N)CC3)cc2)=C(COc2ccc(CCCC(=O)O)cc2)C1` (stereo not shown) [Example 53, 4-(4-((4′-(1-cyanocyclopropyl)-4-methyl-3,4,5,6-tetrahydro-[1,1′-biphenyl]-2-yl)methoxy)phenyl)butanoic Acid] it is 500 to 5000 nM; for `N#CC1(c2ccc(C3=C(COc4ccc(CCCC(=O)O)cc4)COCC3)cc2)CC1` [Example 48, 4-(4-((4-(4-(1-cyanocyclopropyl)phenyl)-5,6-dihydro-2H-pyran-3-yl)methoxy)phenyl) butanoic Acid] it is 500 to 5000 nM. With `O=C(O)CCCc1ccc(OCC2=C(c3ccc4c(c3)CCCC4)CCOC2)cc1` [Example 49, 4-(4-((4-(5,6,7,8-tetrahydronaphthalen-2-yl)-5,6-dihydro-2H-pyran-3-yl)methoxy)phenyl) butanoic Acid] the figure was 500 to 5000 nM; with `O=C(O)CCCc1ccc(OCC2=C(c3nc4c(s3)CCCC4)CCCC2)cc1` [Example 4, 4-(4-((2-(4,5,6,7-tetrahydrobenzo[d]thiazol-2-yl)cyclohex-1-en-1-yl)methoxy)phenyl) butanoic Acid], 500 to 5000 nM; with `Cc1ccc(C2=C(COc3ccc(CCCC(=O)O)cc3)CCCCC2)cc1` [Example 22, 4-(4-((2-(p-tolyl)cyclohept-1-en-1-yl)methoxy)phenyl)butanoic Acid], 50 to 500 nM. `Cc1ccc(C2=C(COc3ccc(CCCC(=O)O)cc3)CC(F)CC2)cc1` (stereo not shown) [Example 54, 4-(4-((4-fluoro-4′-methyl-3,4,5,6-tetrahydro-[1,1′-biphenyl]-2-yl)methoxy)phenyl) butanoic Acid]: the EC50 is 500 to 5000 nM. With `O=C(O)CCCc1ccc(OCC2=C(C3=CCCCC3)CCCC2)cc1` [Example 10, 4-(4-([1,1′-bi(cyclohexane)]-1,1′-dien-2-ylmethoxy)phenyl) butanoic Acid] the figure was 500 to 5000 nM; with `COc1ccc(C2=C(COc3ccc(CCCC(=O)O)cc3)CCCC2)cn1` [Example 14, 4-(4-((2-(6-methoxypyridin-3-yl)cyclohex-1-en-1-yl)methoxy)phenyl) butanoic Acid], 500 to 5000 nM; with `Cc1ccc(C2=C(COc3ccc(CCCC(=O)O)cc3)CCCC2)cc1` [Example 15, 4-(4-((4′-methyl-3,4,5,6-tetrahydro-[1,1′-biphenyl]-2-yl)methoxy)phenyl) butanoic Acid], 50 to 500 nM. With `Cc1ccc(OC2=C(COc3ccc(CCCC(=O)O)cc3)CCCC2)cc1` [Example 50, 4-(4-((2-(p-tolyloxy)cyclohex-1-en-1-yl)methoxy)phenyl)butanoic Acid] the figure was 500 to 5000 nM. The figure for `Nc1ncc(C2=C(COc3ccc(CCCC(=O)O)cc3)CCCC2)cc1C(F)(F)F` [Example 8, 4-(4-((2-(6-amino-5-(trifluoromethyl)pyridin-3-yl)cyclohex-1-en-1-yl)methoxy)phenyl)butanoic Acid] is 500 to 5000 nM. In turn, `COc1ccc(C2=C(COc3ccc(CCCC(=O)O)cc3)CCCC2)cc1` [Example 6, 4-(4-((4′-methoxy-3,4,5,6-tetrahydro-[1,1′-biphenyl]-2-yl)methoxy)phenyl)butanoic Acid] had an EC50 of 500 to 5000 nM.

`N#CC1(c2ccc(C3=C(COc4ccc(CCCC(=O)O)cc4)CCCC3)cc2)CC1` [Example 1, 4-(4-((4′-(1-cyanocyclopropyl)-3,4,5,6-tetrahydro-[1,1′-biphenyl]-2-yl)methoxy)phenyl) butanoic Acid]: the EC50 is 500 to 5000 nM. With `O=C(O)CCCc1ccc(OCC2=C(c3ccc4c(c3)CCCC4)CCCC2)cc1` [Example 9, 4-(4-((2-(5,6,7,8-tetrahydronaphthalen-2-yl)cyclohex-1-en-1-yl)methoxy)phenyl) butanoic Acid] the figure was 50 to 500 nM.

The EC50 is the concentration at which the effect is half-maximal. Read a low EC50 as a more potent agent.
